In PubChem BioAssay AID2305 (GlaxoSmithKline (GSK), 2010) one finds IC50 data, which are given here for 85 compounds.

The assay has as its system P. falciparum 3D7 growth, pLDH absorbance. Briefly: blood-stage malaria parasite growth potency – strain 3D7, dose response (AID 2305).
Turning to `CSCCCN1CCC(O)(c2ccc3oc(C(=O)Nc4ccc5sc(C)nc5c4)cc3c2)CC1`, the IC50 was found to be 1070 nM. This lies in the single-digit micromolar range.

For `CN(C)CCOc1ccc2c(c1)OC(C)(C)C=C2c1cccc2ccccc12`, the IC50 is 780 nM.

As for `CCOC(=O)c1ccc(NC(=O)NCCCC2CCCN(CCCCCNC(=O)/C=C/c3ccc(Cl)c(Cl)c3)C2)cc1` (stereo not given), the IC50 stood at 860 nM.

As to `Cc1cc(NN=Cc2ccccc2Cl)c2cc(C(F)(F)F)ccc2n1`, the concentration for half-maximal inhibition (IC50) was 860 nM.

`O=c1ccccn1CCCC1CCCCN1` (stereo not given) showed an IC50 of 810 nM.

For the compound `O=C(COc1ccc(F)cc1)NC1CCN(c2ccnc3cc(Cl)ccc23)C1` (stereo not given), the IC50 amounted to 270 nM. Against the preceding compound, the IC50 is about 3-fold lower.

In the case of `O=C(/C=C/c1ccc(Cl)c(Cl)c1)NCCCCCN1CCCC(CNC(=O)Nc2ccc(Oc3ccccc3)cc2)C1` (stereo not given), the IC50 was found to be 780 nM.

`CC(=O)Nc1ncc(C(=O)Nc2cccc(-c3ccc(-c4nc5ccc(C(F)(F)F)cc5[nH]4)s3)c2)s1` returned an IC50 of 400 nM.

Turning to `Cc1ccc(NC(=O)c2ccc(-c3cc4cc(Cl)c(Cl)cc4[nH]3)cc2)cc1OCCN1CCCC1`, the IC50 turned out to be 990 nM.

As for `COc1c(C2CCN(CCCCNC(=O)c3ccc(-c4ccc(Cl)cc4)c(O)c3)CC2)ccc2c1CCCC2`, the 50% inhibitory concentration (IC50) amounted to 230 nM.

`COc1cc2c(cc1OC)CN(CCc1ccc(NC(=O)c3cc4cc(Cl)ccc4[nH]3)cc1)CC2` gave an IC50 of 1020 nM.

`Oc1ccc(Cl)cc1CN1CCCC(COC(c2ccc(F)cc2)c2ccc(F)cc2)C1` (stereo not given) displayed an IC50 of 680 nM.

In the case of `Cc1ccc(CNC(=O)[C@H](Cc2ccccc2)Nc2cc(C)nc(NCCc3ccc(F)cc3)n2)cc1`, the half-maximal inhibitory concentration (IC50) came out at 980 nM. This IC50 and that of the compound before are within 1.5-fold of each other.

Compound `CN(c1cc(NC(=O)c2cccs2)ccn1)C1CCN(Cc2cccc(C#N)c2)CC1` registered an IC50 of 1260 nM. This IC50 and that of the compound before are within 1.5-fold of each other.

Consider `CC(C)CCCC(C)(C)NC[C@@H](O)[C@H](Cc1ccccc1)NC(=O)c1cc(NC(C)C)cc(N2CCCCS2(=O)=O)c1F`, for which the 50% inhibitory concentration (IC50) turned out to be 220 nM.

Compound `CN1CCN(CCCN(Cc2cccc(-c3ccc(CNCCc4ccccc4)cc3)c2)C(=O)Nc2ccccc2)CC1` came in with an IC50 of 830 nM.

`CC[C@H]1CN2CC[C@@H]1C[C@H]2[C@H](O)c1cc(N2CCC(CO)CC2)nc2ccc(OC)cc12`: the IC50 stood at 160 nM.

In the case of `COc1ccc(-c2ccc(NC(=O)c3ccc(C#N)cc3)c(F)c2)cc1CN(C)CCN(C)C`, the IC50 amounted to 970 nM.

`COc1ccc(C[C@@H](C)NC[C@H](O)c2cccc(Cl)c2)cc1F` registered an IC50 of 870 nM. This IC50 and that of the compound before are within 1.5-fold of each other.

The compound `CCCCc1ccccc1NS(=O)(=O)c1ccc(OC)c(N2CCNCC2)c1` returned an IC50 of 1380 nM.

Turning to `COc1cccc(C(=O)NCCc2cccc(Cl)c2)c1Oc1ccccc1`, the IC50 is 840 nM.

Compound `Cc1nc(-c2cccc(Nc3nccc(NCC(O)c4cccc(F)c4)n3)c2)cs1` (stereo not given) had an IC50 of 700 nM.

As for `c1ccc(CCNCc2ccc(-c3cccc(-c4nc5ccccc5[nH]4)c3)cc2)nc1`, the IC50 amounted to 620 nM.

As to `COc1ccc(-c2cccc(NC(=O)c3ccc(Cl)cc3)c2)cc1CN1CCNCC1`, the IC50 was determined as 840 nM.

`Cc1cccc2[nH]c(-c3cccc(-c4cccc(C(=O)NCc5nccn5C)c4)c3)nc12` yielded an IC50 of 530 nM.

On to `CCN(CC)CCOc1ccc(C(O)(C#CC(O)(c2ccc(C)cc2)c2ccc(OCCN(CC)CC)cc2)c2ccc(C)cc2)cc1` (stereo not given), for which the IC50 is 900 nM.

Take `N#Cc1ccc(-c2ccc(C(=O)Nc3ccc4c(c3)CCN(C3CCC3)CC4)nc2)cc1`: the IC50 worked out at 700 nM. The IC50 values of the last two compounds are within 1.5-fold of each other.

In turn, `c1cc(CNCCc2ccncc2)cc(-c2cccc(-c3nc4ccccc4[nH]3)c2)c1` came in with an IC50 of 150 nM.

In the case of `O=C(NCC1CCN(Cc2cccc(C(F)(F)F)c2)C1)c1cc(-c2cccc(Cl)c2)cs1` (stereo not given), the IC50 turned out to be 800 nM.

Regarding `COc1ccc2nccc([C@@H](O)CN3CCC(NCCOc4ccc(F)cc4Cl)CC3)c2c1`, the IC50 was 280 nM.

For `CC(C)n1nc(C(=O)N2CCN(c3ccccc3)CC2)c2ccccc2c1=O`, the 50% inhibitory concentration (IC50) stood at 980 nM.

With `OCC(c1ccccc1)n1c(COc2ccc(Cl)cc2)nc2c(OCCCN3CCCCC3)cccc21` (stereo not given), the 50% inhibitory concentration (IC50) stood at 920 nM.

For the compound `COc1ccc2c(OC)c(CNCCCCCCNCc3ccc4cc(OC)ccc4c3OC)ccc2c1`, the IC50 came out at 920 nM. That is a sub-micromolar value.

`Cc1cc(N[C@@H](Cc2ccccc2)C(=O)NC2CCCC2)nc(NCCCOC(C)C)n1`: the IC50 is 1480 nM.

Take `Cc1cc(O)c(CN(C)Cc2ccc3c(c2)OCCO3)cc1C(C)C`: the half-maximal inhibitory concentration (IC50) stood at 670 nM.

`CCCCc1ccc2[nH]cc(C3=CCN(C)CC3)c2c1Br` showed an IC50 of 630 nM.

The compound `Oc1ccc2c(CNC3CCCCC3)c(O)ccc2c1CNC1CCCCC1` showed an IC50 of 40 nM.

Take `Cc1cc(N[C@@H](Cc2ccccc2)C(=O)NC2CCCC2)nc(NCCOc2ccccc2)n1`: the IC50 was 1110 nM.

`CN(Cc1cccc(F)c1)C1CCN(c2cc(NC(=O)c3ccc(F)cc3)ccn2)CC1` gave an IC50 of 1160 nM. The IC50 values of the last two compounds are within 1.5-fold of each other.

As for `CCC(C)c1ccc(NC(=O)Nc2ccnc3ccccc23)cc1` (stereo not given), the IC50 is 630 nM.

On to `CC1CCC(NCc2ccc3c(CNC4CCC(C)CC4)c(O)ccc3c2O)CC1` (stereo not given), for which the IC50 was 120 nM.

As for `N#Cc1ccc(C=NNc2nc3ccccc3[nH]2)cc1`, the IC50 is 1000 nM. This IC50 is about 8.3-fold higher than that of the compound before.

`N=c1n(Cc2ccc(Cl)cc2)c2ccccc2n1CC(O)c1ccc(Cl)c(Cl)c1` (stereo not given) displayed an IC50 of 680 nM.

Regarding `Cc1c(Cc2ccccc2)c(=O)oc2c(C)c3c(cc12)CN(CC(C)c1ccccc1)CO3` (stereo not given), the IC50 was 450 nM. Compared with the last compound, the IC50 is about 1.5-fold lower.

Compound `Cc1cc(F)ccc1Nc1nc(N(C)c2ccccc2)c2cc(OCCN(C)C)ccc2n1` displayed an IC50 of 790 nM.

In turn, `CCNC(=O)Nc1ccc(-c2cccc(-c3nc4c(C)cccc4[nH]3)c2)cc1` came in with an IC50 of 760 nM.

`CC[C@H]1CN2CC[C@@H]1C[C@H]2[C@H](O)c1cc(N2CCC(O)CC2)nc2ccc(OC)cc12` returned an IC50 of 170 nM.

In turn, `Cc1[nH]c(C)c(-c2ccc(CCc3cccc(C(F)(F)F)c3)nc2)c(=O)c1Cl` showed an IC50 of 100 nM. This IC50 lies about 1.7-fold lower than the previous one.

Take `COc1cccc(CNCC(C)(C)c2nc(-c3ccc(Cl)c(O)c3)c(-c3ccncc3)[nH]2)c1`: the IC50 amounted to 690 nM.

Consider `Clc1ccc2nc(-c3cccnc3)[nH]c2c1`, for which the IC50 was 40 nM. Compared with the last compound, the IC50 is about 17-fold lower.

Compound `O=C(/C=C/c1ccc(Cl)c(Cl)c1)NCCCCCN1CCC(NC(=O)c2cc(Cl)ccc2F)CC1` returned an IC50 of 1160 nM.

Consider `Cc1ccc(N2CCN(C(=O)c3cccc(-c4cncc5nc(-c6ccco6)n(C)c45)c3)CC2)nc1`, for which the IC50 came out at 600 nM.

On to `Cc1cc(-c2nc3ccc(CN4CCN(C)CC4)cc3[nH]2)nn1Cc1cc(Cl)ccc1OCc1ccccc1`, for which the IC50 is 1120 nM.

In the case of `Cc1[nH]c2ccc(O)cc2c1C1CCN(CCCCCNC(=O)/C=C/c2ccc(Cl)c(Cl)c2)CC1`, the IC50 came out at 770 nM. This IC50 and that of the compound before are within 1.5-fold of each other.

Regarding `Cc1ccc(-c2cccc3c(NC(=O)Nc4ccc5nccc(N6CCN(C)CC6)c5c4)cccc23)cn1`, the IC50 stood at 350 nM.

The compound `CS(=O)(=O)N(c1cccc(F)c1)c1cc(C(=O)N[C@@H](Cc2ccccc2)[C@H](O)CNCc2cccc(C(F)(F)F)c2)cc(N2CCCC2=O)c1` returned an IC50 of 910 nM.

In turn, `NC(=O)c1ccc(NCC(=O)Nc2cccc(-c3cccc(-c4nc5ccc(F)cc5[nH]4)c3)c2)cc1` registered an IC50 of 870 nM.

Take `COc1ccc2nccc(N3CCC(O)(CCNCc4ccc5c(n4)NC(=O)CS5)CC3)c2n1`: the IC50 came to 650 nM.

Take `CCCc1ccc(S(=O)(=O)NC2CCN(c3ccnc(Nc4ccc(F)cc4)n3)C2)cc1` (stereo not given): the IC50 was 1010 nM.

`CCN1CCCC(CNC(=O)/C(=C/C=C/c2cc3cc(Cl)c(Cl)cc3[nH]2)OC)C1` (stereo not given) registered an IC50 of 890 nM.

As to `CN1CCC(c2nc(N)no2)C1` (stereo not given), the IC50 stood at 980 nM.

`CCN(CC)CCN(CCCc1ccc(-c2ccc(C(F)(F)F)cc2)cc1)C(=O)Cn1c(CCc2cccc(F)c2F)nc(=O)c2c1CCC2` registered an IC50 of 830 nM.

For `C=CCOc1ccc(-c2c(C)[nH]c(C)c(Br)c2=O)cc1`, the IC50 amounted to 280 nM.

`CCCCCCC(C)(C)c1cc(O)c2c3c(c(=O)oc2c1)CCN(Cc1ccccc1)C3` had an IC50 of 220 nM.

Regarding `CC(C)n1cc(CN2CCCC(C(=O)Nc3cccc(-c4cc5ccccc5[nH]4)c3)C2)cn1` (stereo not given), the IC50 stood at 1000 nM.

For `NC1=NC(c2ccccc2)(c2ccccc2)C(=O)N1CC=Cc1ccccc1`, the IC50 was found to be 600 nM.

On to `Cc1ccc2c(OCCN3CCC(Cc4cc5c(cc4F)OCC(=O)N5)CC3)cc(F)cc2n1`, for which the IC50 is 630 nM. The IC50 values of the last two compounds are within 1.5-fold of each other.

Compound `Cc1onc(-c2ccc(Cl)cc2)c1-c1ccnn1S(=O)(=O)c1ccc(Cl)cc1` yielded a half-maximal inhibitory concentration (IC50) of 710 nM.

Compound `CC(C)C[C@H](NC(=O)c1cc2ccccc2s1)C(=O)N[C@H]1CCN(Cc2ccc(OCCN3CCNCC3)c3ccccc23)C1` came in with an IC50 of 1420 nM.

`O=C(/C=C/c1ccc(Cl)c(Cl)c1)NCCCCCN1CCC(NC(=O)Nc2cccc(Cl)c2F)CC1`: the IC50 came out at 380 nM.

`CCc1ccnc2c(N3CCCC3=O)cc(C(=O)N[C@@H](Cc3ccccc3)[C@H](O)CNC3CCOCC3)cc12` yielded an IC50 of 380 nM.

In turn, `O=C(c1ccc(-c2cccc(-c3nc4ccc(F)cc4[nH]3)c2)cc1)N1CCCCC1CN1CCC(O)C1` (stereo not given) returned an IC50 of 1400 nM.

`COc1ccc(NC(=O)[C@H](Cc2ccccc2)Nc2cc(C)nc(NCc3ccccc3C)n2)cc1`: the IC50 was 790 nM.

Compound `OCC1CCN(Cc2cccc(-c3cccc(-c4nc5ccc(C(F)(F)F)cc5[nH]4)c3)c2)CC1` gave an IC50 of 510 nM.

Take `O=C(CC1SC(N2N=C(c3cccs3)CC2c2ccccc2)=NC1=O)Nc1ccc(Cl)cc1` (stereo not given): the IC50 was found to be 1680 nM.

As for `Cc1cc(N2Cc3ccccc3C2)nc(Nc2ccc(S(=O)(=O)N3CCOCC3)cc2)n1`, the IC50 amounted to 1110 nM.

For `CC(O)C1CCCCN1C(=O)c1cccc(-c2ccc(-c3nc4ccc(C(F)(F)F)cc4[nH]3)cc2)c1` (stereo not given), the IC50 came out at 690 nM.

Take `CC(=O)N(C)/N=C/[C@H](CCc1ccccc1)NC(=O)[C@H](CC(C)C)NC(=O)c1cccc(OCCN2CCOCC2)c1`: the IC50 turned out to be 330 nM.

In turn, `COc1ccc(NC(=O)[C@H](Cc2ccccc2)Nc2cc(C)nc(NCCc3ccccc3)n2)cc1` registered an IC50 of 1240 nM.

For the compound `Cc1cccc2[nH]c(-c3ccc(-c4ccc(NC(=O)CN5CCN(C)CC5)cc4)cc3)nc12`, the IC50 turned out to be 790 nM.

Turning to `O=C1C(=Cc2cc(Cc3ccccc3)ccc2O)SC(=S)N1Cc1ccccc1`, the IC50 is 940 nM.

The compound `N#Cc1cccc(CN2CCCN(Cc3ccc(C(=O)Nc4ccc(Cl)cc4)cc3)CC2)c1` came in with an IC50 of 880 nM.

`CCCCCn1c(Sc2ccc(C#N)c([N+](=O)[O-])c2)nnc1-c1ccc(OC)cc1` came in with an IC50 of 1140 nM.

The compound `Cn1nc(-c2ccc(CN[C@@H]3CCc4ccc(O)cc43)cc2)c2cnc(NC3CCCC3)nc21` displayed an IC50 of 1120 nM.

`N=C(N)c1ccc(-c2cc(-c3cccc(C(=N)N)c3)on2)cc1` had an IC50 of 10 nM.
